Where a name gives a salt, the structure may show the parent alone. Read-outs that look alike come from different tables or passages of the source.
Tests used:
HO-1 (rat spleen) = biological target: T1, HO-1 (rat spleen) (Rattus norvegicus, UniProt P06762); test: HO enzymatic activity in rat spleen microsomal fraction (CO formed from methemalbumin, gas chromatography); type: biochemical
T1 construct: Spleen microsomes were used as a source of HO-1; from tissue; host or cells: spleen microsomal fraction of adult male Sprague-Dawley rats
T1 sequence (P06762 1-289): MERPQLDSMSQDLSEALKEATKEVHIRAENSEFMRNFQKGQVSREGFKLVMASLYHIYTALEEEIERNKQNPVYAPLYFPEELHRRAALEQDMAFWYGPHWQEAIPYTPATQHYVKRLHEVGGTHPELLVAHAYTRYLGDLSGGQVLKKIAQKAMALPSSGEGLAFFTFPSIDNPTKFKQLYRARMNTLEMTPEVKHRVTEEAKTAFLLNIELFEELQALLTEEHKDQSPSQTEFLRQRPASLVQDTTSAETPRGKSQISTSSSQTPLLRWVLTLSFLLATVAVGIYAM
Description: (§1) Incubations for HO activity analysis were done under conditions for which the rate of CO formation (pmol CO×min^−1×mg protein^−1) was linear with respect to time and microsomal protein concentration. Briefly, reaction mixtures (150 μL) consisting of 100 mM phosphate buffer (pH 7.4), 50 μM methemalbumin, and 1 mg/mL protein were pre-incubated with the inhibitors at final concentrations ranging from 0.1-100 μM for 10 minutes at 37° C. Reactions were initiated by adding NADPH at a final concentration of 1 mM and incubations were performed for an additional 15 minutes at 37° C.
(§2) Incubations for HO activity analysis were done under conditions for which the rate of CO formation (pmol CO/mg protein/minute) was linear with respect to time and microsomal protein concentration. Briefly, reaction mixtures (150 μL) consisting of 100 mM phosphate buffer (pH 7.4), 50 μM methemalbumin and 1 mg/mL protein were pre-incubated with the vehicle (ethanol or water in which the inhibitors were dissolved), or inhibitors at final concentrations ranging from 0.1-1000 μM for 10 minutes at 37° C. Reactions were initiated by adding β-NADPH at a final concentration of 1 mM and incubations were carried out for an additional 15 minutes at 37° C. Reactions were stopped by instantly freezing the reaction mixture on pulverized dry ice and CO formation was measured by gas chromatography using a TA 3000R Process Gas Analyzer (Trace Analytical/Ametek, Newark, Del., USA).
(§3) The values on the abscissa represent the decimal logarithm of the inhibitor's concentration (in μM), whereas the values of the activity on the ordinate are expressed as a percentage of the control experiments without inhibitor.
(§4) The IC50 values for the replicate experiments were employed to generate the reported standard deviation value.

HO-2 (rat brain) = biological target: T2, HO-2 (rat brain) (Rattus norvegicus, UniProt P23711); test: HO enzymatic activity in rat brain microsomal fraction (CO formed from methemalbumin, gas chromatography); type: biochemical
T2 construct: brain microsomes were used as a source of HO-2; from tissue; host or cells: brain microsomal fraction of adult male Sprague-Dawley rats
T2 sequence (P23711 1-315): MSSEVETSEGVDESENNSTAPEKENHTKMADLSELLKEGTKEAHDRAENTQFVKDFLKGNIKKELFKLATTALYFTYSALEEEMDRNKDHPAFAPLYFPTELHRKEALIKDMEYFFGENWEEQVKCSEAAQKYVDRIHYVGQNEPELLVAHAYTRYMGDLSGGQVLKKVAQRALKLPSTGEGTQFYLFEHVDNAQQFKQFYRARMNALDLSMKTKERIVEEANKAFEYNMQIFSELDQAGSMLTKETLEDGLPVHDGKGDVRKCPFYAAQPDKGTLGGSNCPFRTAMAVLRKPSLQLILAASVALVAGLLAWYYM
Description: as §1, §2, §3, §4

[1] = rat spleen microsomes, average ± standard deviation of replicate experiments, read-out: IC50 HO-1 (rat spleen)/μM
[2] = rat brain microsomes, average ± standard deviation of replicate experiments, read-out: IC50 HO-2 (rat brain)/μM

| Compound | IC50 (HO-1 (rat spleen); [1]) [µM] | IC50 (HO-2 (rat brain); [2]) [µM] | IC50 (HO-1 (rat spleen)) [µM] | IC50 (HO-2 (rat brain)) [µM] | IC50 HO-2 (rat brain)/μM (HO-2 (rat brain); rat brain microsomes, average ± standard deviation of replicate experiments) |
| --- | --- | --- | --- | --- | --- |
| O=C(Cn1cncn1)c1ccc2c(c1)OCCO2 | 18 ± 4 | > 100 | – | – | – |
| c1ccc2[nH]c(CN3CCCC3)nc2c1 | > 100 | > 100 | – | – | – |
| OC(CCc1ccccc1)Cn1cnc(-c2ccccc2)c1-c1ccccc1 (racemic) [(±)-1-(4,5-diphenyl-imidazol-1-yl)-4-phenyl-butan-2-ol] | > 100 | > 100 | – | – | – |
| OC(Cn1ccnc1)c1ccc(Cl)cc1 (racemic) [(±)-1-(4-chloro-phenyl)-2-imidazol-1-yl-ethanol hydrochloride] | 1.19 ± 0.03 | 16 ± 8 | – | – | – |
| Fc1ccc(COC(Cn2ccnc2)c2ccc(CCc3ccccc3)cc2)cc1 (racemic) [(±)-1-[2-(4-fluoro-benzyloxy)-2-(4-phenethyl-phenyl)-ethyl]-1H-imidazole] | ~7 | > 100 | – | – | – |
| Fc1ccc(COC(Cn2ccnc2)c2ccc(-c3ccc(Br)cc3)cc2)cc1 (racemic) [(±)-1-[2-(4′-bromo-biphenyl-4-yl)-2-(4-fluoro-benzyloxy)-ethyl]-1H-imidazole] | 5 ± 2 | > 100 | – | – | – |
| OC(CCn1ccnc1)C12CC3CC(CC(C3)C1)C2 (racemic) [(±)-1-adamantan-1-yl-3-imidazol-1-yl-propan-1-ol hydrochloride] | 2 ± 0.6 | 6.5 ± 0.1 | – | – | – |
| O=C(c1ccccc1)C(c1ccccc1)n1ccnc1 (racemic) [(±)-2-imidazol-1-yl-1,2-diphenyl-ethanone hydrochloride] | 24 ± 6 | > 100 | – | – | – |
| OC(Cn1ccnc1)c1ccc(CCc2ccccc2)cc1 (racemic) [(±)-2-imidazol-1-yl-1-(4-phenethyl-phenyl)-ethanol] | 0.225 ± 0.004 | 1 ± 1 | – | – | – |
| CC(C(=O)c1ccccc1)n1ccnc1 (racemic) [(±)-2-imidazol-1-yl-1-phenyl-propan-1-one hydrochloride] | – | – | 49 ± 2 | > 100 | – |
| O=C1c2ccccc2CC1n1ccnc1 (racemic) [(±)-2-imidazol-1-yl-indan-1-one hydrochloride] | > 100 | > 100 | – | – | – |
| O=C(Cc1ccccc1)C(Cn1ccnc1)c1ccccc1 (racemic) [(±)-4-(1H-imidazol-1-yl)-1,3-diphenyl-butan-2-one hydrochloride] | 3.85 ± 0.07 | > 100 | – | – | – |
| CC(O)C(Cc1ccc(Cl)cc1)n1ccnc1 (racemic) [(±)-4-(4-chlorophenyl)-3-imidazol-1-yl-butan-2-ol hydrochloride] | – | – | 40 ± 2 | > 100 | – |
| CC(=O)C(Cc1ccc(Cl)cc1)n1ccnc1 (racemic) [(±)-4-(4-chlorophenyl)-3-imidazol-1-yl-butan-2-one hydrochloride] | – | – | > 100 | > 100 | – |
| OC(CCc1ccccc1)Cn1cnc(-c2ccccc2)c1 (racemic) [(±)-4-phenyl-1-(4-phenyl-imidazol-1-yl)-butan-2-ol hydrochloride] | 15 ± 1 | > 100 | – | – | – |
| OC(CCc1ccccc1)Cn1ccnn1 (racemic) [(±)-4-phenyl-1-[1,2,3]triazol-1-yl-butan-2-ol hydrochloride] | 44 ± 1 | > 100 | – | – | – |

| Compound | IC50 (HO-1 (rat spleen); [1]) [µM] | IC50 (HO-2 (rat brain); [2]) [µM] | IC50 (HO-1 (rat spleen)) [µM] | IC50 (HO-2 (rat brain)) [µM] | IC50 HO-2 (rat brain)/μM (HO-2 (rat brain); rat brain microsomes, average ± standard deviation of replicate experiments) |
| --- | --- | --- | --- | --- | --- |
| OC(CCc1ccccc1)Cn1cncn1 (racemic) [(±)-4-phenyl-1-[1,2,4]triazol-1-yl-butan-2-ol hydrochloride] | 10.2 ± 0.2 | – | – | 54 ± 12 | – |
| OC(CCc1ccccc1)Cn1cnnn1 (racemic) [(±)-4-phenyl-1-tetrazol-1-yl-butan-2-ol hydrochloride] | 56 ± 6 | > 100 | – | – | – |
| OC(CCc1ccccc1)Cn1ncnn1 (racemic) [(±)-4-phenyl-1-tetrazol-2-yl-butan-2-ol hydrochloride] | – | – | > 100 | > 100 | – |
| CC(=O)C(Cc1ccccc1)n1cncn1 (racemic) [(±)-4-phenyl-3-[1,2,4]triazol-1-yl-butan-2-one] | > 100 | – | – | – | INACTIVE |
| Clc1ccc(C(Cn2ccnc2)NCc2ccccc2)cc1 (racemic) [(±)-benzyl-[1-(4-chloro-phenyl)-2-imidazol-1-yl-ethyl]amine dihydrochloride] | 3.39 ± 0.08 | 22 ± 4 | – | – | – |
| OC(Cn1ccnc1)c1ccc(-c2ccc(Br)cc2)cc1 (racemic) [drawing 342, (±)-1-(4′-bromo-biphenyl-4-yl)-2-imidazol-1-yl-ethanol] | 0.06 ± 0.03 | > 100 | – | – | – |
| Clc1ccc(CC[C@@]2(Cn3ccnc3)OCC(COc3ccc(I)cc3)O2)cc1 (stereo in doubt) [(2R,4S)-1-[2-[2-(4-chloro-phenyl)-ethyl]-4-(4-iodo-phenoxymethyl)-[1,3]dioxolan-2-ylmethyl]-1H-imidazole hydrochloride] | 9 ± 3 | 15 ± 4 | – | – | – |
| COc1ccc(OCC2CO[C@@](CCc3ccc(Cl)cc3)(Cn3ccnc3)O2)cc1 (stereo in doubt) [(2R,4S)-1-[2-[2-(4-chloro-phenyl)-ethyl]-4-(4-methoxy-phenoxymethyl)-[1,3]dioxolan-2-ylmethyl]-1H-imidazole hydrochloride] | 1.33 ± 0.03 | 19 ± 7 | – | – | – |
| COCC1CO[C@@](CCc2ccc(Cl)cc2)(Cn2ccnc2)O1 (stereo in doubt) [(2R,4S)-1-{2-[2-(4-chloro-phenyl)-ethyl]-4-methoxymethyl-[1,3]dioxolan-2-ylmethyl}-1H-imidazole hydrochloride] | 1.73 ± 0.01 | 3.3 ± 0.9 | – | – | – |
| Clc1ccc(CC[C@@]2(Cn3ccnc3)OCC(COc3ccccc3)O2)cc1 (stereo in doubt) [(2R,4S)-1-{2-[2-(4-chloro-phenyl)-ethyl]-4-phenoxymethyl-[1,3]dioxolan-2-ylmethyl}-1H-imidazole hydrochloride] | 0.59 ± 0.04 | 1.6 ± 0.3 | – | – | – |
| Clc1ccc(CC[C@@]2(Cn3ccnc3)OCC(COc3ccc(Br)cc3)O2)cc1 (stereo in doubt) [(2R,4S)-1-{4-(4-bromo-phenoxymethyl)-2-[2-(4-chloro-phenyl)-ethyl]-[1,3]dioxolan-2-ylmethyl}-1H-imidazole hydrochloride] | 3.5 ± 0.2 | 22 ± 8 | – | – | – |
| Clc1ccc(CC[C@@]2(Cn3ccnc3)OCC(COc3ccc(C45CC6CC(CC(C6)C4)C5)cc3)O2)cc1 (stereo in doubt) [(2R,4S)-2-[2-(4-chlorophenyl)ethyl]-2-[(1H-imidazol-1-yl)methyl]-4-[(4-adamantan-1-yl-phenoxy)methyl]-1,3-dioxolane hydrochloride] | > 100 | > 100 | – | – | – |
| Nc1ccc(OCC2CO[C@@](CCc3ccc(Cl)cc3)(Cn3ccnc3)O2)cc1 (stereo in doubt) [(2R,4S)-2-[2-(4-chlorophenyl)ethyl]-2-[(1H-imidazol-1-yl)methyl]-4-[(4-aminophenyloxy)meth-yl]-1,3-dioxolane dihydrochloride] | 1.4 ± 0.3 | 13 ± 4 | – | – | – |
| Oc1ccc(OCC2CO[C@@](CCc3ccc(Cl)cc3)(Cn3ccnc3)O2)cc1 (stereo in doubt) [(2R,4S)-2-[2-(4-chlorophenyl)ethyl]-2-[(1H-imidazol-1-yl)methyl]-4-[(4-hydroxyphenyloxy)meth-yl]-1,3-dioxolane hydrochloride] | 1.8 ± 0.5 | 7.1 ± 0.7 | – | – | – |
| N#Cc1ccc(OCC2CO[C@@](CCc3ccc(Cl)cc3)(Cn3ccnc3)O2)cc1 (stereo in doubt) [(2R,4S)-4-{2-[2-(4-chlorophenyl)ethyl]-2-imidazol-1-ylmethyl-[1,3]dioxolan-4-ylmethoxy}-benzonitrile hydrochloride] | 0.67 ± 0.02 | 1.7 ± 0.2 | – | – | – |
| COc1ccc(OCC2CO[C@](CCc3ccc(Cl)cc3)(Cn3ccnc3)O2)cc1 (stereo in doubt) [(2S,4S)-2-[2-(4-chlorophenyl)ethyl]-2-[(1H-imidazol-1-yl)methyl]-4-[(4-methoxyphenyloxy)meth-yl]-1,3-dioxolane hydrochloride] | 28 ± 15 | 29 ± 6 | – | – | – |

— patent US20140155445A1, “Compounds and Methods for Treating Cancer and Diseases of the Central Nervous System” (Osta Biotechnologies Inc., priority 2007, published 2014)
